Data from the NIST ThermoML archive (doi:10.1021/je800530u).

Conditions: Liquid, Closed cell (Static) method

NCCO [2-aminoethan-1-ol]
Conditions | vapor or sublimation pressure [kPa]
283.15 K | 0.0158
283.34 K | 0.016
288.34 K | 0.02533
293.15 K | 0.0382
293.34 K | 0.03866
298.34 K | 0.05866
303.15 K | 0.0867
303.34 K | 0.08799
308.34 K | 0.1293
313.15 K | 0.1855
313.34 K | 0.188
318.34 K | 0.2693
323.15 K | 0.3762
323.34 K | 0.3813
328.34 K | 0.5333
333.15 K | 0.7274
333.34 K | 0.7359
338.34 K | 1.007
343.15 K | 1.347
343.34 K | 1.363
348.34 K | 1.827
353.15 K | 2.4
353.34 K | 2.425
358.34 K | 3.193
363.09 K | 4.113
363.15 K | 4.126

CN1CCOCC1 [N-methylmorpholine]
Conditions | vapor or sublimation pressure [kPa]
273.18 K | 0.6893
278.18 K | 0.9533
283.18 K | 1.3
288.18 K | 1.748
293.18 K | 2.322
298.18 K | 3.049
303.18 K | 3.96
308.18 K | 5.09
313.15 K | 6.471
313.18 K | 6.479
318.18 K | 8.174
323.15 K | 10.21
323.18 K | 10.22
328.18 K | 12.68
333.15 K | 15.58
333.18 K | 15.6
338.18 K | 19.06
343.15 K | 23.1
343.18 K | 23.13
348.18 K | 27.88
353.08 K | 33.27
353.15 K | 33.35
363.15 K | 47.02

O [water]
Conditions | vapor or sublimation pressure [kPa]
282.87 K | 1.177
283.15 K | 1.2
287.87 K | 1.636
292.87 K | 2.244
293.15 K | 2.284
297.87 K | 3.044
302.87 K | 4.081
303.15 K | 4.148
307.87 K | 5.416
312.87 K | 7.114
313.15 K | 7.222
317.87 K | 9.258
322.87 K | 11.94
323.15 K | 12.11
327.87 K | 15.27
332.87 K | 19.36
333.15 K | 19.62
337.87 K | 24.37
342.87 K | 30.44
343.15 K | 30.82
347.87 K | 37.76
352.87 K | 46.53
353.15 K | 47.07
357.87 K | 56.98
362.87 K | 69.35
363.15 K | 70.1
363.8 K | 71.88
